In ChEMBL document CHEMBL1141955, “Geometric diversity through permutation of backbone configuration in cyclic peptide libraries” (Bioorg Med Chem Lett, 2005):

Molecular target: Actin, cytoplasmic 1 (Xenopus laevis, UniProt O93400)
Assay: Inhibitory activity against actin assembly in xenopus by polymerisation assay; call rule not given here

| IC50 | IC50 (read-out: IC50) | SMILES |
| --- | --- | --- |
| Not Active |  | NCCCC[C@@H]1NC(=O)[C@H](CCC(N)=O)NC(=O)[C@H]2CCCN2C(=O)[C@H](Cc2ccccc2)NC(=O)[C@@H](Cc2ccccc2)NC(=O)[C@H]2CCCN2C(=O)[C@@H](Cc2ccccc2)NC1=O |
|  | 2000 nM | NCCCC[C@@H]1NC(=O)[C@H](CCC(N)=O)NC(=O)[C@H]2CCCN2C(=O)[C@H](Cc2ccccc2)NC(=O)[C@@H](Cc2ccccc2)NC(=O)[C@H]2CCCN2C(=O)[C@@H](Cc2ccccc2)NC(=O)[C@H](CCCCN)NC(=O)[C@H](CCC(N)=O)NC(=O)[C@H]2CCCN2C(=O)[C@H](Cc2ccccc2)NC(=O)[C@@H](Cc2ccccc2)NC(=O)[C@H]2CCCN2C(=O)[C@@H](Cc2ccccc2)NC1=O |
